Experimental findings from ChEMBL document CHEMBL5649166, “RIP3 induces apoptosis independent of pronecrotic kinase activity” (Mol Cell, 2014) are described below.

In data set [1] the test system is 3T3SA. Description: Induction of apoptosis in RIP3 shRNA transfected mouse 3T3SA cells co-transfected with shRNA resistant RIP3 K51A mutant assessed as accumulation of RIP3 K51A mutant in pellet incubated for 3 hrs in presence of zVAD by immunoblot analysis. Format: toxicity, cell-based.
Data set [2] deals with 3T3SA. Description: Induction of apoptosis in mouse 3T3SA cells incubated for 18 hrs in presence of BMS-345541 by Cell Titer-Glo luminescent cell viability assay. Format: toxicity, cell-based.
Data set [3] has as its system 3T3SA. Nature of the data set: Induction of apoptosis in RIP3shRNA transfected mouse 3T3SA cells co-transfected with shRNA-resistant RIP3 mutRHIM pre-tranfected for 16 hrs followed by compound addition and measured after 18 hrs in presence of zVAD by Cell Titer-Glo luminescent cell viability assay. Format: toxicity, cell-based.
In data set [4] the test system is MEF. Nature of the data set: Induction of apoptosis in RIP3-/- MEF cells expressing dox-induced wildtype RIP3 assessed as RIP1-RPI3 association incubated for 1 hrs by immunoblot analysis. Format: toxicity, cell-based. The following applies: mouse.
Data set [5] concerns 3T3SA. Description: Inhibition of TNF-alpha induced necroptosis in mouse 3T3SA cells at 10 uM incubated for 18 hrs in presence of zVAD by SYTOX green uptake assay. Type of data set: functional, cell-based.
For data set [6], the system named is 3T3SA. Nature of the data set: Induction of apoptosis in mouse 3T3SA cells incubated for 18 hrs in presence of zVAD by Cell Titer-Glo luminescent cell viability assay. Type of data set: toxicity, cell-based.
The subject of data set [7] is 3T3SA. Nature of the data set: Induction of apoptosis in vICA expression plasmid transfected mouse 3T3SA cells co-transfected with shRNA-resistant empty vector incubated for 12 hrs by Cell Titer-Glo luminescent cell viability assay. Type of data set: toxicity, cell-based.
Data set [8] has as its system 3T3SA. Description: Inhibition of necroptosis in mouse 3T3SA cells incubated for 18 hrs in presence of Nec-1 by Cell Titer-Glo luminescent cell viability assay. Type of data set: functional, cell-based.
The test system of data set [9] is 3T3SA. Description: Induction of apoptosis in RIP3 shRNA transfected mouse 3T3SA cells co-transfected with shRNA resistant RIP3 assessed as accumulation of wildtype RIP3 in pellet incubated for 3 hrs in presence of zVAD by immunoblot analysis. Format: toxicity, cell-based.
The test system of data set [10] is 3T3SA. Nature of the data set: Induction of apoptosis in vICA expression plasmid transfected mouse 3T3SA cells co-transfected with shRNA-resistant RIP3 D161G mutant incubated for 12 hrs by Cell Titer-Glo luminescent cell viability assay. Format: toxicity, cell-based.
The subject of data set [11] is MEF. Nature of the data set: Induction of apoptosis in cFLIPL-/- MEF cells transfected with cFLIPL expressing retrovirus assessed as increase in caspase 8 proteolytic activity incubated for 4 hrs. Type of data set: toxicity, cell-based. The following applies: mouse.
Data set [12] has as its system 3T3SA. Description: Induction of apoptosis in mouse 3T3SA cells assessed as cell morphological changes incubated for 2.5 hrs by transmission electron microscopic analysis. Format: toxicity, cell-based.
Data set [13] relates to SVEC4-10. Description: Inhibition of DAI-induced necroptosis in MCMV M45mutRHIM infected mouse SVEC4-10 cells assessed as increase in cell viability at 10 uM incubated for 18 hrs by Cell Titer-Glo luminescent cell viability assay. Type of data set: functional, cell-based.
For data set [14], the system named is MEF. Description: Induction of apoptosis in MEF cells expressing RIP3 K51A/K51A mutant incubated for 18 hrs by Cell Titer-Glo luminescent cell viability assay. Type of data set: toxicity, cell-based. The following applies: mouse.
A further data set deals with BMDM. Description: Induction of apoptosis in mouse BMDM cells expressing RIP3 K51A/K51A mutant incubated for 18 hrs by Cell Titer-Glo luminescent cell viability assay. Type of data set: toxicity, cell-based.
The test system of data set [15] is 3T3SA. Nature of the data set: Induction of apoptosis in mouse 3T3SA cells transfected with RIP3 shRNA at 10 uM incubated for 18 hrs by Cell Titer-Glo luminescent cell viability assay. Format: toxicity, cell-based.
Data set [16] relates to 3T3SA. Nature of the data set: Induction of apoptosis in RIP3 shRNA transfected mouse 3T3SA cells co-transfected with shRNA resistant RIP3 D143N mutant assessed as accumulation of FLAG-tagged RIP3 D143N mutant in pellet incubated for 3 hrs in presence of zVAD by immunoblot analysis. Type of data set: toxicity, cell-based.
Another data set concerns L929. Nature of the data set: Inhibition of TLR-3 induced necroptosis in mouse L929 cells assessed as increase in cell viability at higher concentration incubated for 18 hrs in presence of poly(I:C) by Cell Titer-Glo luminescent cell viability assay. Format: functional, cell-based.
The test system of data set [17] is 3T3SA. Nature of the data set: Induction of apoptosis in RIP3 shRNA transfected mouse 3T3SA cells co-transfected with shRNA resistant RIP3 D161G mutant assessed as accumulation of FLAG-tagged RIP3 D161G mutant in pellet incubated for 3 hrs in presence of zVAD by immunoblot analysis. Format: toxicity, cell-based.
For data set [18], the system named is 3T3SA. Description: Induction of apoptosis in RIP3shRNA transfected mouse 3T3SA cells co-transfected with shRNA-resistant RIP3 D143N mutant pre-tranfected for 16 hrs followed by compound addition and measured after 18 hrs in presence of zVAD by Cell Titer-Glo luminescent cell viability assay. Format: toxicity, cell-based.
Data set [19] relates to SVEC4-10. Description: Induction of apoptosis in mouse SVEC4-10 cells transfected with RIP3 shRNA at 10 uM incubated for 18 hrs by Cell Titer-Glo luminescent cell viability assay. Type of data set: toxicity, cell-based. The following applies: svec4-10, 18 h.
The test system of data set [20] is 3T3SA. Nature of the data set: Induction of apoptosis in mouse 3T3SA cells incubated for 18 hrs in presence of BHA by Cell Titer-Glo luminescent cell viability assay. Format: toxicity, cell-based.
In data set [21] the test system is MEF. Nature of the data set: Induction of apoptosis in cFLIPL-/- MEF cells incubated for 18 hrs by Cell Titer-Glo luminescent cell viability assay. Format: toxicity, cell-based. To be noted: mouse.
The test system of data set [22] is SVEC4-10. Nature of the data set: Induction of apoptosis in mouse SVEC4-10 cells transfected with M45mutRHIM incubated for 18 hrs by Cell Titer-Glo luminescent cell viability assay. Type of data set: toxicity, cell-based. The following applies: svec4-10, 18 h.
Data set [23] has as its system 3T3SA. Description: Induction of apoptosis in mouse 3T3SA cells incubated for 18 hrs in presence of zYVAD by Cell Titer-Glo luminescent cell viability assay. Type of data set: toxicity, cell-based.
Data set [24] concerns MEF. Nature of the data set: Inhibition of necroptosis in MEF cells expressing RIP1 K45A/K45A mutant incubated for 18 hrs by Cell Titer-Glo luminescent cell viability assay. Type of data set: functional, cell-based. To be noted: Mus musculus.
Data set [25] relates to SVEC4-10. Description: Inhibition of DAI-induced necroptosis in MCMV M45mutRHIM infected mouse SVEC4-10 cells assessed as increase in cell viability at 10 uM incubated for 18 hrs in presence of zVAD by Cell Titer-Glo luminescent cell viability assay. Format: functional, cell-based.
In data set [26] the test system is 3T3SA. Description: Induction of apoptosis in RIP3shRNA transfected mouse 3T3SA cells co-transfected with shRNA-resistant RIP3 T257A mutant pre-tranfected for 16 hrs followed by compound addition and measured after 18 hrs in presence of zVAD by Cell Titer-Glo luminescent cell viability assay. Type of data set: toxicity, cell-based.
The subject of data set [27] is MEF. Nature of the data set: Induction of apoptosis in RIP3-/- MEF cells expressing dox-induced wildtype RIP3 assessed as RIP1-FADD association incubated for 1 hrs by immunoblot analysis. Format: toxicity, cell-based. The following applies: mouse.
The test system of data set [28] is MEF. Description: Induction of apoptosis in RIP3-/- MEF cells incubated for 18 hrs by Cell Titer-Glo luminescent cell viability assay. Type of data set: toxicity, cell-based. To be noted: mouse.
Data set [29] addresses Serine/threonine-protein kinase ULK3 (Homo sapiens) (UniProt Q6PHR2). Nature of the data set: Inhibition of human ULK3 using myelin basic protein as substrate at 1 uM in presence of 32P-ATP by Hotspot assay relative to control; values are per cent of control.
The target of data set [30] is Serine/threonine-protein kinase ULK2 (Homo sapiens) (UniProt Q8IYT8). Nature of the data set: Inhibition of human ULK2 using myelin basic protein as substrate at 1 uM in presence of 32P-ATP by Hotspot assay relative to control; values are per cent of control.

Active and inactive are the calls of the source. The calls are words filed in the database; no cut-off is given here.

Sequence of Serine/threonine-protein kinase ULK2 (Homo sapiens) (Q8IYT8 whole entry): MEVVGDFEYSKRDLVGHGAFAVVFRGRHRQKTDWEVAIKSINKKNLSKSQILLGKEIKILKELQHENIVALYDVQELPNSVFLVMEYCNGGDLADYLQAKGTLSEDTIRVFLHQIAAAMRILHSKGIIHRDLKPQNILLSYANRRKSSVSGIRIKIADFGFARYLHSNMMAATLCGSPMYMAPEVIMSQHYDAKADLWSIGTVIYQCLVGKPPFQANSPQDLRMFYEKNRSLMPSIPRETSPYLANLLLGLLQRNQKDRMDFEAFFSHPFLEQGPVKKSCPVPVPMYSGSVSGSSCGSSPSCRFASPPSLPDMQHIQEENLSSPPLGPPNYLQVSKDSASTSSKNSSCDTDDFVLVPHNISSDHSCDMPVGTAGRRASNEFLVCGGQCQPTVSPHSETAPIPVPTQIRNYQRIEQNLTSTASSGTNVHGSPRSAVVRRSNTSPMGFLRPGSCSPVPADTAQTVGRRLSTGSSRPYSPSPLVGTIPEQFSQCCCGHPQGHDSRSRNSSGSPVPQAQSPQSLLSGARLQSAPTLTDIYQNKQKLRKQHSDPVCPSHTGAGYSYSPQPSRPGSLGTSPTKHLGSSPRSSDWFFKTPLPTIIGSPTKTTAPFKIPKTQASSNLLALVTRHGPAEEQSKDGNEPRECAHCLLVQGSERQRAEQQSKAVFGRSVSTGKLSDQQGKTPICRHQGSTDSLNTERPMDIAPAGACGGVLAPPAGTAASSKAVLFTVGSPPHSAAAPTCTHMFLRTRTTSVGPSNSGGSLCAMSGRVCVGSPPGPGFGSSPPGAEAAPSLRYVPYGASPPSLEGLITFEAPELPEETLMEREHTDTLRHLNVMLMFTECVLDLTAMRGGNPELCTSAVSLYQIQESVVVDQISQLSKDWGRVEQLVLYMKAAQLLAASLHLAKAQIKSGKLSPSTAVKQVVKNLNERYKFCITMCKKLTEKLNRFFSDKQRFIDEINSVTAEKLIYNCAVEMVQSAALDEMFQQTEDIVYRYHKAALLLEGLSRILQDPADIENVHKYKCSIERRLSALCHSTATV
Sequence of Serine/threonine-protein kinase ULK3 (Homo sapiens) (Q6PHR2 whole entry): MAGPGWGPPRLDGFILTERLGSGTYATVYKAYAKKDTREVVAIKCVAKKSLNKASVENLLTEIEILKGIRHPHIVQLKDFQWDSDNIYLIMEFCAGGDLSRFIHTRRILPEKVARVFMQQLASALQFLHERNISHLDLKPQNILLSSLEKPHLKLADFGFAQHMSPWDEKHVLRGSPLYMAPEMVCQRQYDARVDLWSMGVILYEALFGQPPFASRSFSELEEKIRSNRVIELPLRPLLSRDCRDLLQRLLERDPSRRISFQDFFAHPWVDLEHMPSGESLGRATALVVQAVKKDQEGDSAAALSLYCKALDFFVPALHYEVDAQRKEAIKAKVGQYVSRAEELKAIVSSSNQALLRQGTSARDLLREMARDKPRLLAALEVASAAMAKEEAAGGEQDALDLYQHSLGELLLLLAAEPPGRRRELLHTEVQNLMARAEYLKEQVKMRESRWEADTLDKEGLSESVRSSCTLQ

As to `CC(C)S(=O)(=O)c1ccc2nccc(Nc3ccc4scnc4c3)c2c1`, the Activity entry in the data set with 3T3SA [1] was “Toxic”; with 3T3SA [2] it was “Toxic”; in the data set on 3T3SA [3], “Non-Toxic”; with MEF [4] it was “Toxic”; with 3T3SA [6] it was “Non-Toxic”; in the data set with 3T3SA [7], “Non-Toxic”. Moreover, the Activity entry with 3T3SA [9] was “Toxic”; in the data set with 3T3SA [10], “Non-Toxic”; with MEF [11] it was “Toxic”; in the data set with 3T3SA [12], “Toxic”; in the data set on MEF [14], “Toxic”; in the data set on BMDM it was “Toxic”. For the same compound, the Activity result in the data set with 3T3SA [15] was “Non-Toxic”; with 3T3SA [16], “Toxic”; in the data set on 3T3SA [17] it was “Toxic”; with 3T3SA [18], “Non-Toxic”; in the data set on SVEC4-10 [19], “Non-Toxic”; in the data set on 3T3SA [20], “Toxic”. The Activity result with MEF [21] is on record as “Non-Toxic”; with SVEC4-10 [22], “Toxic”; in the data set with 3T3SA [23], “Toxic”; in the data set with 3T3SA [26], “Non-Toxic”; in the data set on MEF [27], “Toxic”; in the data set on MEF [28] it was “Non-Toxic”. Also, the outcome with 3T3SA [5] was Active. Moreover, the inhibition entry with 3T3SA [8], in the data set with MEF [24] and with SVEC4-10 [25] was “Active” throughout. Further, the inhibition result with SVEC4-10 [13] and in the data set with L929 was “inactive” throughout.

Consider `CNC(=O)c1ccc2c(c1)ncn2-c1ccc(CC(=O)OC(C)(C)C)cc1`, for which the residual activity in data set [29] stood at 95.4%; in data set [30], 96.1%.
